Test results as given in patent US20150025045A1, “CBP AND p300-MEDIATED TRANSCRIPTION MODULATORS AND RELATED METHODS” (THE OHIO STATE UNIVERSITY, priority 2011, published 2015).
Entries after “also recorded” stand apart in the source; their conditions may differ. Blank lines part the entries; values can stand above or below the compound they belong to.

Key:
[1] = system: Jun; assay: Transcriptional inhibition assay, Ga14 DBD-Jun TAD luciferase reporter in HeLa cells; format: cell-based; conditions: in words
Experimental: Cells were transfected with Firefly (500 ng/mL) and Renilla luciferase (10 ng/mL) plasmids in addition to plasmids encoding the DBD of Ga14 fused to the minimal activation domains of either MLL (250 ng/mL), Jun (100 ng/mL), or ESX (500 ng/mL, 0.1 mL of total transfection solution). Four hours post-transfection cells were treated with increasing concentration of 1b (0→50 μM) as a solution in DMSO such that the final DMSO concentration was 1% (v/v). Percent inhibition is the ratio of fold activation of Jun at each concentration of compound and the fold activation of Jun in a DMSO-treated control. Each bar represents at least three independent experiments with the indicated error (SDOM). For each concentration level of 1b shown in FIG. 5a, the first data column from the left is Jun, the middle column is MLL, and the third column is ESX. (b) MCF-7 cells were treated with 40 μM 1b (as a solution in DMSO such that the final concentration of DMSO was 1% v/v) for 24 h, at which time the cells were lysed and the lysates separated by SDS-PAGE. Western blots were performed using commercial antibodies against GAPDH, Jun, and cyclin D1.
(b) Analogs of 1b tested for MLL and Jun inhibition. (c) Inhibition of Jun with isoxazolidine analogs Inhibition assays were carried out as described in FIG. 5a (SEQ ID NOs:1-4). For each concentration level shown in FIG. 6c, the compound data is shown (from the left) in the following order: 3, 4, 5, 6, 7, 8 and 9.
HeLa cells (10,000 per well) were transfected with a Firefly luciferase reporter (500 ng/mL), and Renilla (10 ng/mL) control plasmid in addition to a plasmid encoding for either the MLL (250 ng/mL) or Jun (100 ng/mL) activation domain fused to the DNA-binding domain of Ga14 in 0.1 mL Optimem. The Optimem was removed and 0.1 mL of DMEM supplemented with 10% FBS and compound was added four hours post-transfection and the luminescence was assessed after 24 h as described above.

[2] = system: MCF-7 cells; assay: Cell viability assay (WST-1); format: cell-based; conditions: at concentrations ≧50 μM (so in the source)
Experimental: Viability data was acquired after 24 h using a cell-permeable metabolic dye, WST-1 (Roche). Viability data was normalized based on cell viability in the presence of 1% DMSO.
MCF-7 cells (American Tissue Culture Collection) were seeded at 5000 cells per well in a 96 well plate in RPMI media supplemented with 10% fetal bovine serum and allowed to adhere (37° C. and 5% CO2) overnight. Cells were incubated with 1b in DMSO or DMSO alone to a final DMSO concentration of 1% (v/v) for 24 hrs. WST-1 (Roche) was subsequently added to wells and the 96 well plate was incubated for 1 h at 37° C. Absorbance at 440 nm was read on a Tecan GENios Pro plate reader following 1 minute of orbital shaking. Data was corrected for wells containing media+WST-1 without cells. Each value is the average of at least three wells with the indicated error (SDOM).

[3] = molecular target: T1, KIX domain of CBP (Mus musculus, UniProt P45481); assay: 1H-15N-HSQC binding analysis; conditions: 200 μM 15N-His6KIX, 5 eq. compound
T1 construct: the KIX domain, an 87-residue module whose solution structure has been elucidated; made in house
T1 sequence (P45481 586-665 limits assumed): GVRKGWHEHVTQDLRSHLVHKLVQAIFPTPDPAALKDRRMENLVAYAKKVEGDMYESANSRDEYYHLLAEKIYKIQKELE
Experimental: The amide chemical shifts that change upon addition of 4 were quantitated were quantified using the equation: Δδ=[Δδ(^1H)^2+0.1Δδ(^15N)^2]^1/2, FIG. 7B bottom.
Uniformly labeled His6KIX protein was expressed and purified as previously described and stored as a lyophilized powder (see, e.g., Buhrlage, 2009). A 200 μM solution of His6KIX was prepared by dissolving the lyophilized protein, in a 9:1 H2O:D2O 10 mM PBS buffer containing 150 mM NaCl at pH 7.2. ^1H-^15N HSQC experiments were recorded at 27° C. on an Avance Bruker 600 MHz NMR spectrometer equipped with a 5 mm cryogenic probe. An HSQC was collected in the absence of isoxazolidine 4 and compared with data recorded in the presence of 5 eq. (1 mM) of 4. Data was processed using NMRPIPE. Chemical shift assignments were based on previously reported data′ and chemical shift analyses with Sparky software were quantified (Δδ=[Δδ(^1H)^2+0.1Δδ(^15N)^2]^1/2).

SMILES: CC(C)C[C@]1(CCO)C[C@H](CN=[N+]=[N-])ON1Cc1ccc(F)cc1 (racemic) [isoxazolidine 6]
effect on Jun-driven transcription [1]: dose-dependent manner; also recorded: enhanced potency

SMILES: CC(C)CCN1O[C@@H](CN=[N+]=[N-])C[C@@]1(CCO)CC(C)C (racemic) [isoxazolidine 7]
effect on Jun-driven transcription [1]: dose-dependent manner; also recorded: enhanced potency

SMILES: CCCN1O[C@@H](CN=[N+]=[N-])C[C@@]1(CCO)CC(C)C (racemic) [isoxazolidine 9]
effect on Jun-driven transcription [1]: little activity

SMILES: CC(C)CN1O[C@@H](CN=[N+]=[N-])C[C@@]1(CCO)CC(C)C (racemic) [isoxazolidine 8]
effect on Jun-driven transcription [1]: little activity

KIX binding by 1H-15N-HSQC [3]: did not negatively impact KLX binding
SMILES: CC(C)C[C@]1(CCO)C[C@H](CN=[N+]=[N-])ON1Cc1ccc(O)cc1 (racemic) [isoxazolidine 4]
effect on Jun-driven transcription [1]: little activity
toxicity [2]: no measurable toxicity
